Data taken from patent US20130158072A1, “KAPPA OPIOID RECEPTOR BINDING LIGANDS” (Research Triangle Institute, priority 2010, published 2013).
Where “and” joins values, the source holds several entries; their conditions need not be identical. Equal values may be shown once. Where a name gives a salt, the structure may show the parent alone.

How the values were obtained:
[1] = target: T1, cloned human μ-opioid receptor (Homo sapiens, UniProt P35372); test: Inhibition of DAMGO-stimulated [35S]GTPγS binding; assay type: biochemical; settings: for μ, DAMGO Ke: antagonism of DAMGO-stimulated [35S]GTPγS binding, CHO cells, means ± SE, at least three experiments; for potency at μ receptors compared to 3: compared with 3
T1 construct: expressed in transfected cells; host or cells: CHO cells
T1 sequence (P35372 whole entry): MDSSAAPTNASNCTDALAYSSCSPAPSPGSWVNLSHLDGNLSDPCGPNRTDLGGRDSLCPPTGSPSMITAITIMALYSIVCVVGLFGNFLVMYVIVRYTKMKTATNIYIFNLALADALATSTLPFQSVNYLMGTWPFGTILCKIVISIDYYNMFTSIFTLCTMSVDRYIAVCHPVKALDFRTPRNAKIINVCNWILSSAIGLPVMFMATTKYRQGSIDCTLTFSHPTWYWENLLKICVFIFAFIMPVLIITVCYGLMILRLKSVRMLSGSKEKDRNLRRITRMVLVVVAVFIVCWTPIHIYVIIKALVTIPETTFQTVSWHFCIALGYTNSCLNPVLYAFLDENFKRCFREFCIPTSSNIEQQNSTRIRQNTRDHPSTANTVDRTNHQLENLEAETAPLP
Protocol: (§1) Test compound assay concentrations ranged from 1-5000 nM, depending on their activity. The Ke values were calculated using the formula: Ke=[L]/DR−1, where [L] is the concentration of test compound and DR is the ratio of agonist EC50 value in the presence or absence of test compound, respectively.

[2] = target: cloned human κ-opioid receptor (Homo sapiens, UniProt P41145); test: Inhibition of U69,593-stimulated [35S]GTPγS binding; settings: for κ, U69,593 Ke: antagonism of U69,593-stimulated [35S]GTPγS binding, CHO cells, means ± SE, at least three experiments; for δ/κ / μ/κ: ratio of Ke values; for δ/κ: κ selectivity relative to δ; for μ/κ: κ selectivity relative to μ; for change in potency on N-methylation at the tetrahydroisoquinoline nitrogen: 8c: at all receptor subtypes, others: at κ receptors
Sequence of cloned human κ-opioid receptor (P41145 whole entry): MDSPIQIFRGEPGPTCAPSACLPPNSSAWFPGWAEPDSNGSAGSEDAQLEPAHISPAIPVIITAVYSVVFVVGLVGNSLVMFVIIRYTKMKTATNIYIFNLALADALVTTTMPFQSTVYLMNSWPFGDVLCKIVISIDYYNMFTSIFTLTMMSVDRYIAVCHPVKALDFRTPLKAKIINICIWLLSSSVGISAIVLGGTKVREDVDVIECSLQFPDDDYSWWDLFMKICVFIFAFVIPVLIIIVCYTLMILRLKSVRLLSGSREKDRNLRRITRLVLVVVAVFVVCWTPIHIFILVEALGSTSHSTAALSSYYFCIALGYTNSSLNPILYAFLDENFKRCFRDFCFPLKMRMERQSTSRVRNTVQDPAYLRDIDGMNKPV
Protocol: as §1

[3] = target: T2, cloned human δ-opioid receptor (Homo sapiens, UniProt P41143); test: Inhibition of DPDPE-stimulated [35S]GTPγS binding; assay type: biochemical; settings: for δ, DPDPE Ke: antagonism of DPDPE-stimulated [35S]GTPγS binding, CHO cells, means ± SE, at least three experiments
T2 construct: expressed in transfected cells; host or cells: CHO cells
T2 sequence (P41143 whole entry): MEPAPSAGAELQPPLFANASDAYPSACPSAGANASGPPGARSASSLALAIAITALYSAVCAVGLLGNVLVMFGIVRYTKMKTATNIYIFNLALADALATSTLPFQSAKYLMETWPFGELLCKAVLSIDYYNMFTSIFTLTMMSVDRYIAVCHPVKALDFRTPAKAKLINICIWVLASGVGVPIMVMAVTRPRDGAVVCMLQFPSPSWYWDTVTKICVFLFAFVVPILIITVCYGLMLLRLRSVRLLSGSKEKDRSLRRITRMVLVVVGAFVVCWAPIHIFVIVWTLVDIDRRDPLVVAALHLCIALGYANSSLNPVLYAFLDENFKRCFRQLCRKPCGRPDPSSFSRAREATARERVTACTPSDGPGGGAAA
Protocol: as §1

## COc1ccc2c(c1)CN[C@@](C)(C(=O)N[C@H](CN1CC[C@@](C)(c3cccc(O)c3)[C@@H](C)C1)C(C)C)C2 [Compound 8g, (3R)-7-Methoxy-N-[(1S)-1-[(3R,4R)-4-(3-hydroxyphenyl)-3,4-dimethylpiperidin-1-yl]methyl}-(2-methylpropyl]-3-methyl-1,2,3,4-tetrahydroisoquinoline-3-carboxamide]
[1]
  μ, DAMGO Ke: 3.8 ± 1.1 nM
[2]
  κ, U69,593 Ke: 0.93 ± 0.05 nM
  δ/κ: 40
  μ/κ: 4
[3]
  δ, DPDPE Ke: 36.8 ± 6.9 nM

## CC(C)[C@@H](CN1CC[C@@](C)(c2cccc(O)c2)[C@@H](C)C1)NC(=O)[C@H]1Cc2ccc(O)cc2CN1C [Compound 8c]
[1]
  μ, DAMGO Ke: 210 ± 60 nM
[2]
  change in potency on N-methylation at the tetrahydroisoquinoline nitrogen: reduction in potency at all receptor subtypes
  κ, U69,593 Ke: 0.16 nM and 0.16 ± 0.06 nM
  δ/κ: 3070
  μ/κ: 1313
[3]
  δ, DPDPE Ke: 491 ± 120 nM

## COc1cccc([C@]2(C)CCN(C[C@@H](NC(=O)[C@H]3Cc4ccc(O)cc4CN3C)C(C)C)C[C@@H]2C)c1 [Compound 8k, (3R)-7-Hydroxy-N-[(1S)-1-{[(3R,4R)-4-(3-methoxyphenyl)-3,4-dimethylpiperidin-1-yl]methyl}-2-methylpropyl]-2-methyl-1,2,3,4-tetrahydroisoquinoline-3-carboxamide]
[1]
  Kb: 880 ± 220 nM
[2]
  Kb: 4.3 ± 2.7 nM
  change in potency on N-methylation at the tetrahydroisoquinoline nitrogen: decreases in potency
[3]
  Kb: 2300 ± 900 nM

## COc1cccc([C@]2(C)CCN(C[C@@H](NC(=O)[C@H]3Cc4ccc(O)cc4CN3)C(C)C)C[C@@H]2C)c1 (as salt: hydrochloride) [Compound 8d, (3R)-7-Hydroxy-N-[(1S)-1-{[(3R,4R)-4-(3-methoxyphenyl)-3,4-dimethylpiperidin-1-yl]methyl}-2-methylpropyl]-1,2,3,4-tetrahydroisoquinoline-3-carboxamide]
other
  melting point: > 220 °C (dec.)

## COc1ccc2c(c1)CN(C)[C@@](C)(C(=O)N[C@H](CN1CC[C@@](C)(c3cccc(O)c3)[C@@H](C)C1)C(C)C)C2 (as salt: hydrochloride) [Compound 8o, (3R)-7-Methoxy-N-[(1S)-1-{[(3R,4R)-4-(3-hydroxyphenyl)-3,4-dimethylpiperidin-1-yl]methyl}-2-methylpropyl]-2,3-dimethyl-1,2,3,4-tetrahydroisoquinoline-3-carboxamide]
other
  melting point: 199 °C (dec.)

## COc1cccc([C@]2(C)CCN(C[C@@H](NC(=O)[C@@]3(C)Cc4ccc(OC)cc4CN3)C(C)C)C[C@@H]2C)c1 (as salt: hydrochloride) [Compound 8l, (3R)-7-Methoxy-N-[(1S)-1-{[(3R,4R)-4-(3-methoxyphenyl)-3,4-dimethylpiperidin-1-yl]methyl}-2-methylpropyl]-3-methyl-1,2,3,4-tetrahydroisoquinoline-3-carboxamide]
other
  melting point: > 220 °C (dec.)

## CC[C@H](C)[C@@H](CN1CC[C@@](C)(c2cccc(OC)c2)[C@@H](C)C1)NC(=O)[C@H]1Cc2ccc(O)cc2CN1C [Compound 8p, (3R)-7-Hydroxy-N-[(1S,2S)-1-{[(3R,4R)-4-(3-methoxyphenyl)-3,4-dimethylpiperidin-1-yl]methyl}-2-methylbutanyl]-2-methyl-1,2,3,4-tetrahydroisoquinoline-3-carboxamide]
[1]
  Kb: 360 ± 120 nM
[2]
  Kb: 2.03 ± 0.03 nM
  change in potency on N-methylation at the tetrahydroisoquinoline nitrogen: decreases in potency
  μ/κ: 180
[3]
  Kb: > 10000 nM

## CC[C@H](C)[C@@H](CN1CC[C@@](C)(c2cccc(O)c2)[C@@H](C)C1)NC(=O)[C@H]1Cc2ccc(O)cc2CN1C [Compound 8j, (3R)-7-Hydroxy-N-[(1S,2S)-1-{[(3R,4R)-4-(3-hydroxyphenyl)-3,4-dimethylpiperidin-1-yl]methyl}-2-methylbutanyl]-2-methyl-1,2,3,4-tetrahydroisoquinoline-3-carboxamide]
[1]
  Kb: 7.2 ± 1.8 nM
  potency at μ receptors compared to 3: increased potency
[2]
  Kb: 0.11 ± 0.03 nM
  change in potency on N-methylation at the tetrahydroisoquinoline nitrogen: decreases in potency
  δ/κ: 1200
  μ/κ: 66
[3]
  Kb: 132 ± 24 nM

## CC[C@H](C)[C@@H](CN1CC[C@@](C)(c2cccc(OC)c2)[C@@H](C)C1)NC(=O)[C@H]1Cc2ccc(O)cc2CN1 (as salt: hydrochloride) [Compound 8f, (3R)-7-Hydroxy-N-[(1S,2S)-1-{[(3R,4R)-4-(3-methoxyphenyl)-3,4-dimethylpiperidin-1-yl]methyl}-2-methylbutanyl]-1,2,3,4-tetrahydroisoquinoline-3-carboxamide]
other
  melting point: > 220 °C (dec.)

## CC[C@H](C)[C@@H](CN1CC[C@@](C)(c2cccc(OC)c2)[C@@H](C)C1)NC(=O)[C@H]1Cc2ccc(O)cc2CN1C (as salt: hydrochloride) [Compound 8p, (3R)-7-Hydroxy-N-[(1S,2S)-1-{[(3R,4R)-4-(3-methoxyphenyl)-3,4-dimethylpiperidin-1-yl]methyl}-2-methylbutanyl]-2-methyl-1,2,3,4-tetrahydroisoquinoline-3-carboxamide]
other
  melting point: 180 °C (dec.)

## COc1cccc([C@]2(C)CCN(C[C@@H](NC(=O)[C@@]3(C)Cc4ccc(O)cc4CN3)C(C)C)C[C@@H]2C)c1 [Compound 8h, (3R)-7-Hydroxy-N-[(1S)-1-{[(3R,4R)-4-(3-methoxyphenyl)-3,4-dimethylpiperidin-1-yl]methyl}-2-methylpropyl]-3-methyl-1,2,3,4-tetrahydroisoquinoline-3-carboxamide]
[2]
  Kb: 0.26 ± 0.1 nM
[3]
  Kb: 2200 ± 900 nM

## (3R)-7-Methoxy-N-[(1S,2S)-1-{[(3R,4R)-4-(3-hydroxyphenyl)-3,4-dimethylpiperidin-1-yl]}-2-methylbutanyl]-3-methyl-1,2,3,4-tetrahydroisoquinoline-3-carboxamide [Compound 8m]
[1]
  μ, DAMGO Ke: 17.5 ± 3.6 nM
  potency at μ receptors compared to 3: increased potency
[2]
  δ/κ: 5
  μ/κ: 5
[3]
  δ, DPDPE Ke: 18.7 ± 1.5 nM

## COc1cccc([C@]2(C)CCN(C[C@@H](NC(=O)[C@H]3Cc4ccc(O)cc4CN3)C(C)C)C[C@@H]2C)c1 [Compound 8d, (3R)-7-Hydroxy-N-[(1S)-1-{[(3R,4R)-4-(3-methoxyphenyl)-3,4-dimethylpiperidin-1-yl]methyl}-2-methylpropyl]-1,2,3,4-tetrahydroisoquinoline-3-carboxamide]
[1]
  Kb: 24 ± 8 nM
[2]
  Kb: 0.037 ± 0.003 nM
  δ/κ: 573
  μ/κ: 649
[2]; compared with 3
  decrease in potency at the κ receptor relative to 3: two-fold decrease in potency
[3]
  Kb: 21.2 ± 5 nM

## COc1cccc([C@]2(C)CCN(C[C@@H](NC(=O)[C@@]3(C)Cc4ccc(OC)cc4CN3)C(C)C)C[C@@H]2C)c1 [Compound 8l, (3R)-7-Methoxy-N-[(1S)-1-{[(3R,4R)-4-(3-methoxyphenyl)-3,4-dimethylpiperidin-1-yl]methyl}-2-methylpropyl]-3-methyl-1,2,3,4-tetrahydroisoquinoline-3-carboxamide]
[2]
  Kb: 15.2 ± 3.7 nM
[3]
  Kb: > 10000 nM

## CC[C@H](C)[C@@H](CN1CC[C@@](C)(c2cccc(OC)c2)[C@@H](C)C1)NC(=O)[C@H]1Cc2ccc(O)cc2CN1 [Compound 8f, (3R)-7-Hydroxy-N-[(1S,2S)-1-{[(3R,4R)-4-(3-methoxyphenyl)-3,4-dimethylpiperidin-1-yl]methyl}-2-methylbutanyl]-1,2,3,4-tetrahydroisoquinoline-3-carboxamide]
[1]
  Kb: 5.1 ± 2 nM
  potency at μ receptors compared to 3: increased potency
[2]
  Kb: 0.96 ± 0.4 nM

## CC(C)[C@@H](CN1CC[C@@](C)(c2cccc(O)c2)[C@@H](C)C1)NC(=O)[C@@]1(C)Cc2ccc(O)cc2CN1 [Compound 8e, (3R)-7-Hydroxy-N-[(1S)-1-[(3R,4R)-4-(3-hydroxyphenyl)-3,4-dimethylpiperidin-1-yl]methyl}-(2-methylpropyl]-3-methyl-1,2,3,4-tetrahydroisoquinoline-3-carboxamide]
[1]
  μ, DAMGO Ke: 3.6 ± 1 nM
[2]
  κ, U69,593 Ke: 0.03 nM and 0.03 ± 0.008 nM
[3]
  δ, DPDPE Ke: 854 ± 210 nM

## COc1ccc2c(c1)CN(C)[C@@](C)(C(=O)N[C@H](CN1CC[C@@](C)(c3cccc(O)c3)[C@@H](C)C1)C(C)C)C2 [Compound 8o, (3R)-7-Methoxy-N-[(1S)-1-{[(3R,4R)-4-(3-hydroxyphenyl)-3,4-dimethylpiperidin-1-yl]methyl}-2-methylpropyl]-2,3-dimethyl-1,2,3,4-tetrahydroisoquinoline-3-carboxamide]
[1]
  Kb: 7 ± 1.4 nM
[2]
  Kb: 2.2 ± 0.6 nM
  change in potency on N-methylation at the tetrahydroisoquinoline nitrogen: decreases in potency

## CC[C@H](C)[C@@H](CN1CC[C@@](C)(c2cccc(O)c2)[C@@H](C)C1)NC(=O)[C@@]1(C)Cc2ccc(O)cc2CN1 [Compound 8i, (3R)-7-Hydroxy-N-[(1S,2S)-1-{[(3R,4R)-4-(3-hydroxyphenyl)-3,4-dimethylpiperidin-1-yl]methyl}-2-methylbutanyl]-3-methyl-1,2,3,4-tetrahydroisoquinoline-3-carboxamide]
[1]
  Kb: 8.7 ± 2.7 nM
  potency at μ receptors compared to 3: increased potency
[2]
  Kb: 0.11 ± 0.01 nM

## CC[C@H](C)[C@@H](CN1CC[C@@](C)(c2cccc(OC)c2)[C@@H](C)C1)NC(=O)[C@@]1(C)Cc2ccc(O)cc2CN1 [Compound 8n, (3R)-7-Hydroxy-N-[(1S,2S)-1-{[(3R,4R)-4-(3-methoxyphenyl)-3,4-dimethylpiperidin-1-yl]methyl}-2-methylbutanyl)-3-methyl-1,2,3,4-tetrahydroisoquinoline-3-carboxamide]
[2]
  Kb: 0.52 ± 0.2 nM
[3]
  Kb: 2100 ± 600 nM
